The subject of assay [1] is MIA PaCa-2 (KRAS G12C) cells. Description: Cellular pERK HTRF assay (KRAS_G12C pERK). The assay is classed as cell-based, human. Conditions: Homo sapiens, MIA PaCa-2, 4 hours incubation, read-out: G12C_pERK. An outline of the steps:
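MIA PaCa-2 cells plated overnight, then exposed to compound for 4 h at 37 °C (G12C compounds). Phospho-ERK1/2 measured in lysates by HTRF (665/620 nm) after overnight antibody incubation; IC50 from percent inhibition versus log concentration.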
(In general: In TR-FRET formats the signal depends on donor and acceptor labels being close together.)

The target in assay [2] is KRAS G12C (Homo sapiens, UniProt P01116, G12C). Description: GDP-GTP exchange assay (KRAS_G12C exchange). The format is biochemical. Conditions: bodipy-GDP loaded KRAS G12C 2.5 nM, SOS1 150 nM, GppNHp; 2 hours pre-incubation, 2 hours reaction; read-out: G12C_exchange. In a few lines:
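Fluorescence exchange of bodipy-GDP for GppNHp, SOS1-driven, read at 485/520 nm; IC50 from four-parameter variable-slope fit. Both mutants used 2.5 nM final labelled protein and a 2 h compound pre-incubation. G12C reaction had 500 uM GppNHp and 150 nM SOS1 for 2 h; G12D ran 4 h.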

Here are results for 17 molecules from patent US20210269434A1, “TRICYCLIC COMPOUNDS AS INHIBITORS OF KRAS” (Incyte Corporation, priority 2020, published 2021).

KRAS G12C, sequence (P01116 1-188 isoform P01116-2 G12C): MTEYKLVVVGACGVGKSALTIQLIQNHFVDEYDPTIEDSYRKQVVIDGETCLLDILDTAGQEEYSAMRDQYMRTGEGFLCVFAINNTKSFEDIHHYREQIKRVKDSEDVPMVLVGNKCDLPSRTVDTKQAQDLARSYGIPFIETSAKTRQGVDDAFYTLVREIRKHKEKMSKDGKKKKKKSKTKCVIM

Turning to `Cc1cccc(-c2c(C)cc3c(nc(N4CC(C)(N(C)C)C4)c4nnn([C@H]5CCN(C(=O)/C=C/CF)[C@H](CC#N)C5)c43)c2F)c1C` [Example 209, 2-((2S,4S)-4-(4-(3-(dimethylamino)-3-methylazetidin-1-yl)-7-(2,3-dimethylphenyl)-6-fluoro-8-methyl-1H-[1,2,3]triazolo[4,5-c]quinolin-1-yl)-1-((E)-4-fluorobut-2-enoyl)piperidin-2-yl)acetonitrile], the IC50 in assay [1] and in assay [2] was ≤ 100 nM each time.

With `C=CC(=O)N1CC[C@H](n2cnc3c(N4CC(N(C)C)C4)nc4c(F)c(-c5cccc6cccc(C)c56)c(Cl)cc4c32)C[C@H]1CC#N` [Example 68, 2-((2S,4S)-1-acryloyl-4-(8-chloro-4-(3-(dimethylamino)azetidin-1-yl)-6-fluoro-7-(8-methylnaphthalen-1-yl)-1H-imidazo[4,5-c]quinolin-1-yl)piperidin-2-yl)acetonitrile], the IC50 in assay [1] and in assay [2] was ≤ 100 nM in each case.

As for `C=CC(=O)N1CC[C@H](n2nnc3c(N4CC(N(C)C)C4)nc4c(Cl)c(-c5cccc(Cl)c5OC)c(Cl)cc4c32)C[C@H]1CC#N` [Example 290, 2-((2S,4S)-1-acryloyl-4-(6,8-dichloro-7-(3-chloro-2-methoxyphenyl)-4-(3-(dimethylamino)azetidin-1-yl)-1H-[1,2,3]triazolo[4,5-c]quinolin-1-yl)piperidin-2-yl)acetonitrile], the IC50 in assay [1] and in assay [2] was ≤ 100 nM in each case.

As to `CC#CC(=O)N1CCC(n2cnc3c(N4CC(C)(N(C)C)C4)nc4c(F)c(-c5cccc6cccc(Cl)c56)c(C)cc4c32)C[C@H]1CC#N` (stereo partly drawn) [Example 222, 2-((2S)-1-(but-2-ynoyl)-4-(7-(8-chloronaphthalen-1-yl)-4-(3-(dimethylamino)-3-methylazetidin-1-yl)-6-fluoro-8-methyl-1H-imidazo[4,5-c]quinolin-1-yl)piperidin-2-yl)acetonitrile], the IC50 in assay [1] and in assay [2] was ≤ 100 nM throughout.

With `C=CC(=O)N1CC[C@H](n2nnc3c(OC[C@@H]4CCCN4C)nc4c(F)c(-c5ccc(F)cc5)c(Cl)cc4c32)C[C@H]1CC#N` [Example 131, 2-((2S,4S)-1-acryloyl-4-(8-chloro-6-fluoro-7-(4-fluorophenyl)-4-(((S)-1-methylpyrrolidin-2-yl)methoxy)-1H-[1,2,3]triazolo[4,5-c]quinolin-1-yl)piperidin-2-yl)acetonitrile], the IC50 in assay [1] and in assay [2] was ≤ 100 nM throughout.

Regarding `Cc1cc2c(nc(OC[C@@H]3CCCN3C)c3nnn([C@H]4CCN(C(=O)/C=C/C(F)F)[C@H](CC#N)C4)c32)c(F)c1-c1cccnc1C(F)(F)F` (single isomer, unassigned) [Example 168a], the IC50 in assay [1] and in assay [2] was ≤ 100 nM each time.

Take `C=CC(=O)N1CC[C@H](n2nnc3c(N4CC(N(C)C)C4)nc4c(F)c(-c5ccccc5C(F)(F)F)c(C)cc4c32)C[C@H]1CC#N` (single isomer, unassigned) [Example 165a]: the IC50 in assay [1] and in assay [2] was ≤ 100 nM throughout.

With `C=CC(=O)N1CC[C@H](n2cnc3c(N4CC(N(C)C)C4)nc4c(F)c(-c5cncc6ccccc56)c(Cl)cc4c32)C[C@H]1CC#N` (single isomer, unassigned) [Example 73a], the IC50 in assay [1] and in assay [2] was ≤ 100 nM each time.

Take `C=CC(=O)N1CC[C@H](n2nnc3c(OC[C@@H]4CCCN4C)nc4c(F)c(-c5ccc(F)c(C)c5)c(C)cc4c32)C[C@H]1CC#N` [Example 199, 2-((2S,4S)-1-acryloyl-4-(6-fluoro-7-(4-fluoro-3-methylphenyl)-8-methyl-4-(((S)-1-methylpyrrolidin-2-yl)methoxy)-1H-[1,2,3]triazolo[4,5-c]quinolin-1-yl)piperidin-2-yl)acetonitrile]: the IC50 in assay [1] and in assay [2] was ≤ 100 nM in each case.

On to `C=CC(=O)N1CC[C@H](n2nnc3c(N4CC(N(C)C)C4)nc4c(F)c(-c5cccc(C#N)c5C)c(Cl)cc4c32)C[C@H]1CC#N` [Example 115, 3-(1-((2S,4S)-1-acryloyl-2-(cyanomethyl)piperidin-4-yl)-8-chloro-4-(3-(dimethylamino)azetidin-1-yl)-6-fluoro-1H-[1,2,3]triazolo[4,5-c]quinolin-7-yl)-2-methylbenzonitrile], for which the IC50 in assay [1] and in assay [2] was ≤ 100 nM each time.

With `C=CC(=O)N1CC[C@H](n2nnc3c(OC[C@@H]4CCCN4C)nc4c(F)c(-c5ccccc5C(F)(F)F)c(C)cc4c32)C[C@H]1CC#N` (single isomer, unassigned) [Example 160a], the IC50 in assay [1] and in assay [2] was ≤ 100 nM in each case.

In the case of `C=CC(=O)N1CC[C@H](n2cnc3c(N4CC(N(C)C)C4)nc4c(F)c(-c5ccc(F)c6cccnc56)c(Cl)cc4c32)C[C@H]1CC#N` (single isomer, unassigned) [Example 64a], the IC50 in assay [1] and in assay [2] was ≤ 100 nM throughout.

Take `COC/C=C/C(=O)N1CC[C@H](n2nnc3c(OC[C@@H]4CCCN4C)nc4c(F)c(-c5cccc(Cl)c5C)c(C)cc4c32)C[C@H]1CC#N` [Example 100, 2-((2S,4S)-4-(7-(3-chloro-2-methylphenyl)-6-fluoro-8-methyl-4-(((S)-1-methyl-pyrrolidin-2-yl)methoxy)-1H-[1,2,3]triazolo[4,5-c]quinolin-1-yl)-1-((E)-4-methoxybut-2-enoyl)piperidin-2-yl)acetonitrile]: the IC50 in assay [1] and in assay [2] was ≤ 100 nM in each case.

For the molecule `Cc1c(Cl)cc2[nH]ncc2c1-c1c(Cl)cc2c(nc(N3CC(N(C)C)C3)c3nnn([C@H]4CCN(C(=O)/C=C/CN(C)C)[C@H](CC#N)C4)c32)c1F` [Example 179a, 2-((2S,4S)-4-(8-chloro-7-(6-chloro-5-methyl-1H-indazol-4-yl)-4-(3-(dimethylamino)-azetidin-1-yl)-6-fluoro-1H-[1,2,3]triazolo[4,5-c]quinolin-1-yl)-1-((E)-4-(dimethyl-amino)but-2-enoyl)piperidin-2-yl)acetonitrile], the IC50 in assay [1] and in assay [2] was ≤ 100 nM in each case.

In the case of `C=CC(=O)N1CC[C@H](n2cnc3c(N4CC(N(C)C)C4)nc4c(F)c(-c5ccc(C)cc5C)c(Cl)cc4c32)C[C@H]1CC#N` [Example 59, 2-((2S,4S)-1-acryloyl-4-(8-chloro-4-(3-(dimethylamino)azetidin-1-yl)-7-(2,4-dimethylphenyl)-6-fluoro-1H-imidazo[4,5-c]quinolin-1-yl)piperidin-2-yl)acetonitrile], the IC50 in assay [1] and in assay [2] was ≤ 100 nM each time.

As to `CC#CC(=O)N1CC[C@H](n2nnc3c(OC[C@@H]4CCCN4C)nc4c(F)c(-c5cccnc5C(F)(F)F)c(C)cc4c32)C[C@H]1CC#N` (single isomer, unassigned) [Example 205a], the IC50 in assay [1] and in assay [2] was ≤ 100 nM in each case.

With `C=CC(=O)N1CCC(n2nnc3c(OC[C@@H]4CCCN4C)nc4c(F)c(-c5cc(O)cc6ccccc56)c(Cl)cc4c32)CC1` (single isomer, unassigned) [Example 14a], the IC50 in assay [1] and in assay [2] was ≤ 100 nM in each case.
